Measured values taken from patent US12599672B2, “KRAS proteolysis targeting chimeras” (PAQ Therapeutics Inc., priority 2023, dated 2026).

Assays:
Format in all cases: cell-based
KRAS G12D = molecular target: T1, KRAS G12D (Homo sapiens, UniProt P01116, G12D); assay: KRAS G12D HiBit assay; settings: AsPc-1-KRAS (G12D)-HiBit-KI cell, compound treatment for 24 hours, absolute DC50
T1 construct: AsPc-1-KRAS (G12D)-HiBit-KI cell (Pharmaron); host or cells: AsPc-1-KRAS (G12D)-HiBit-KI cells (HiBiT knock-in at the endogenous KRAS locus)
How it was run: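 Cells were treated for 24 h with compounds in a 3-fold, 10-point dilution series from a 0.3 mM DMSO stock, then equilibrated 15 min at room temperature. KRAS G12D HiBiT levels were read by luminescence after lytic Nano-Glo HiBiT reagent with LgBiT; inhibition calculated relative to 0.1% DMSO high control.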

KRAS G12V = molecular target: T2, KRAS G12V (Homo sapiens, UniProt P01116, G12V); assay: KRAS G12V HiBit assay; settings: SW620-KRAS (G12V)-HiBit-KI cells, compound treatment for 24 hours, class symbols
T2 construct: SW620-KRAS (G12V)-HiBit-KI cell (Pharmaron); host or cells: SW620-KRAS (G12V)-HiBit-KI cells (HiBiT knock-in at the endogenous KRAS locus)
How it was run: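 HiBiT-tagged KRAS G12V cells treated 24 h with compound in a 3-fold, 10-point series (0.3 mM DMSO stock); lytic HiBiT reagent with LgBiT added after 15 min room-temperature equilibration. Degradation calculated against 0.1% DMSO high control.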

KRAS = molecular target: T3, KRAS (Homo sapiens, UniProt P01116); assay: KRASamp MSD assay; settings: KE39 (KRAS amplified) cells, treated with test compounds for 24 hr, MSD readout of KRAS degradation
T3 construct: endogenous in cells; host or cells: KE39 (KRAS amplified) cells
How it was run: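 KRAS-amplified KE39 cells treated with compound for 24 hr, then lysed in RIPA buffer with protease/phosphatase inhibitors. KRAS protein measured by MSD sandwich immunoassay against a recombinant WT KRAS standard curve; DC50 derived from curve fitting of degradation.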

[1] = numeric bounds given in place of class symbols

T1 sequence (P01116 1-188 isoform P01116-2 G12D): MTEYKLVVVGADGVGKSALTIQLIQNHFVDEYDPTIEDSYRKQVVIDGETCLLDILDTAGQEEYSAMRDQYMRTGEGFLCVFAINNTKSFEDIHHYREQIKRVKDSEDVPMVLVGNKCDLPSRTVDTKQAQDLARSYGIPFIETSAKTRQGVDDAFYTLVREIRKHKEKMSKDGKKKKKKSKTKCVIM
T2 sequence (P01116 1-188 isoform P01116-2 G12V): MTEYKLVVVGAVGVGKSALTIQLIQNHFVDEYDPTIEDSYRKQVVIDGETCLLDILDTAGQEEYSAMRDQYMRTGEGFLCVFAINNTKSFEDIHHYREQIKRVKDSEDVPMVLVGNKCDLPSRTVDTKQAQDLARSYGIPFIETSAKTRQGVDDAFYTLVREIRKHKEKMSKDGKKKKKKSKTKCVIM
T3 sequence (P01116 1-188 isoform P01116-2): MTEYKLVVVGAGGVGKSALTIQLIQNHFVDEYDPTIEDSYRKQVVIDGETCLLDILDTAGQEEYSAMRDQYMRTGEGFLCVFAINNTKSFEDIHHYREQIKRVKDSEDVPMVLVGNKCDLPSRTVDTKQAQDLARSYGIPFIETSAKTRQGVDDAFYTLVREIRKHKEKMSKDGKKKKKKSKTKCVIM

| SMILES | DC50 (KRAS G12D; class symbols) | DC50 (KRAS G12V) | DC50 (KRAS) | DC50 (KRAS G12D; [1]) |
| --- | --- | --- | --- | --- |
| CCc1c(F)ccc2cc(O)cc(-c3ncc4c(N5CCC[C@@](C)(O)C5)nc(OC[C@@]56CCCN5[C@H](COC(=O)N5CCC(OC7CCN(c8ccc9c(c8)n(C)c(=O)n9C8CCC(=O)NC8=O)CC7)CC5)CC6)nc4c3F)c12 (stereo partly drawn) [Compound 160, ((3S,7aS)-7a-(((7-(8-Ethyl-7-fluoro-3-hydroxynaphthalen-1-yl)-8-fluoro-4-((R)-3-hydroxyl-3-methylpiperidin-1-yl)pyrido[4,3-d]pyrimidin-2-yl)oxy)methyl)hexahydro-1H-pyrrolizin-3-yl)methyl 4-((1-(1-(2,6-dioxopiperidin-3-yl)-3-methyl-2-oxo-2,3-dihydro-1H-benzo[d]imidazol-5-yl)piperidin-4-yl)oxy)piperidine-1-carboxylate] | < 100 nM | < 10 nM | < 1 nM |  |
| CCc1c(F)ccc2cc(O)cc(-c3ncc4c(N5CCC[C@@](C)(O)C5)nc(OC[C@]56CCCN5[C@H](COC(=O)N5CCC(CCOc7ccc8c(c7)n(C)c(=O)n8C7CCC(=O)NC7=O)CC5)CC6)nc4c3F)c12 (stereo partly drawn) [Compound 300, ((3S,7aR)-7a-(((7-(8-ethyl-7-fluoro-3-hydroxynaphthalen-1-yl)-8-fluoro-4-((R)-3-hydroxy-3-methylpiperidin-1-yl)pyrido[4,3-d]pyrimidin-2-yl)oxy)methyl)hexahydro-1H-pyrrolizin-3-yl)methyl 4-(2-((1-(2,6-dioxopiperidin-3-yl)-3-methyl-2-oxo-2,3-dihydro-1H-benzo[d]imidazol-5-yl)oxy)ethyl)piperidine-1-carboxylate] | < 100 nM | < 10 nM | < 1 nM |  |
| CCc1c(F)ccc2cc(O)cc(-c3ncc4c(N5CCC[C@@](C)(O)C5)nc(OC[C@]56CCCN5[C@H](COC(=O)N5CCC(COc7ccc8c(c7)n(C)c(=O)n8C7CCC(=O)NC7=O)CC5)CC6)nc4c3F)c12 (stereo partly drawn) [Compound 301, ((3S,7aR)-7a-(((7-(8-ethyl-7-fluoro-3-hydroxynaphthalen-1-yl)-8-fluoro-4-((R)-3-hydroxy-3-methylpiperidin-1-yl)pyrido[4,3-d]pyrimidin-2-yl)oxy)methyl)hexahydro-1H-pyrrolizin-3-yl)methyl 4-(((1-(2,6-dioxopiperidin-3-yl)-3-methyl-2-oxo-2,3-dihydro-1H-benzo[d]imidazol-5-yl)oxy)methyl)piperidine-1-carboxylate] | < 100 nM | < 10 nM | < 1 nM |  |
| CCc1c(F)ccc2cc(O)cc(-c3ncc4c(N5CCC[C@@](C)(O)C5)nc(OC[C@]56CCCN5[C@H](COC(=O)N5CCC(CCCOc7ccc8c(c7)n(C)c(=O)n8C7CCC(=O)NC7=O)CC5)CC6)nc4c3F)c12 (stereo partly drawn) [Compound 302, ((3S,7aR)-7a-(((7-(8-ethyl-7-fluoro-3-hydroxynaphthalen-1-yl)-8-fluoro-4-((R)-3-hydroxy-3-methylpiperidin-1-yl)pyrido[4,3-d]pyrimidin-2-yl)oxy)methyl)hexahydro-1H-pyrrolizin-3-yl)methyl 4-(3-((1-(2,6-dioxopiperidin-3-yl)-3-methyl-2-oxo-2,3-dihydro-1H-benzo[d]imidazol-5-yl)oxy)propyl)piperidine-1-carboxylate] |  | < 10 nM | < 1 nM | > 100 nM |
| CCc1c(F)ccc2cc(O)cc(-c3ncc4c(N5CCC[C@@](C)(O)C5)nc(OC[C@]56CCCN5[C@H](COC(=O)N5CCC(CCCCOc7ccc8c(c7)n(C)c(=O)n8C7CCC(=O)NC7=O)CC5)CC6)nc4c3F)c12 (stereo partly drawn) [Compound 303, ((3S,7aR)-7a-(((7-(8-ethyl-7-fluoro-3-hydroxynaphthalen-1-yl)-8-fluoro-4-((R)-3-hydroxy-3-methylpiperidin-1-yl)pyrido[4,3-d]pyrimidin-2-yl)oxy)methyl)hexahydro-1H-pyrrolizin-3-yl)methyl 4-(4-((1-(2,6-dioxopiperidin-3-yl)-3-methyl-2-oxo-2,3-dihydro-1H-benzo[d]imidazol-5-yl)oxy)butyl)piperidine-1-carboxylate] | < 100 nM | < 10 nM | 1 to 10 nM |  |
| CCc1c(F)ccc2cc(O)cc(-c3ncc4c(N5CCC[C@@](C)(O)C5)nc(OC[C@]56CCCN5[C@H](COC(=O)N5CCC(c7ccc8c(c7)n(C)c(=O)n8C7CCC(=O)NC7=O)CC5)CC6)nc4c3F)c12 (stereo partly drawn) [Compound 307, ((3S,7aR)-7a-(((7-(8-ethyl-7-fluoro-3-hydroxynaphthalen-1-yl)-8-fluoro-4-((R)-3-hydroxy-3-methylpiperidin-1-yl)pyrido[4,3-d]pyrimidin-2-yl)oxy)methyl)hexahydro-1H-pyrrolizin-3-yl)methyl 4-(1-(2,6-dioxopiperidin-3-yl)-3-methyl-2-oxo-2,3-dihydro-1H-benzo[d]imidazol-5-yl)piperidine-1-carboxylate] | < 100 nM | > 100 nM | 1 to 10 nM |  |
| CCc1c(F)ccc2cc(O)cc(-c3ncc4c(N5CCC[C@@](C)(O)C5)nc(OC[C@]56CCCN5[C@H](COC(=O)NC5CCN(c7ccc8c(c7)n(C)c(=O)n8C7CCC(=O)NC7=O)CC5)CC6)nc4c3F)c12 (stereo partly drawn) [Compound 308, ((3S,7aR)-7a-(((7-(8-ethyl-7-fluoro-3-hydroxynaphthalen-1-yl)-8-fluoro-4-((R)-3-hydroxy-3-methylpiperidin-1-yl)pyrido[4,3-d]pyrimidin-2-yl)oxy)methyl)hexahydro-1H-pyrrolizin-3-yl)methyl (1-(1-(2,6-dioxopiperidin-3-yl)-3-methyl-2-oxo-2,3-dihydro-1H-benzo[d]imidazol-5-yl)piperidin-4-yl)carbamate] |  | 10 to 100 nM | < 1 nM | > 100 nM |
| CCc1c(F)ccc2cc(O)cc(-c3ncc4c(N5CCC[C@@](C)(O)C5)nc(OC[C@]56CCCN5[C@H](COC(=O)NC5CCCN(c7ccc8c(c7)n(C)c(=O)n8C7CCC(=O)NC7=O)C5)CC6)nc4c3F)c12 (stereo partly drawn) [Compound 309, ((3S,7aR)-7a-(((7-(8-ethyl-7-fluoro-3-hydroxynaphthalen-1-yl)-8-fluoro-4-((R)-3-hydroxy-3-methylpiperidin-1-yl)pyrido[4,3-d]pyrimidin-2-yl)oxy)methyl)hexahydro-1H-pyrrolizin-3-yl)methyl (1-(1-(2,6-dioxopiperidin-3-yl)-3-methyl-2-oxo-2,3-dihydro-1H-benzo[d]imidazol-5-yl)piperidin-3-yl)carbamate] |  | 10 to 100 nM | 1 to 10 nM | > 100 nM |
| CCc1c(F)ccc2cc(O)cc(-c3ncc4c(N5CCC[C@@](C)(O)C5)nc(OC[C@]56CCCN5[C@H](COC(=O)N5CCC(c7cccc8c7n(C)c(=O)n8C7CCC(=O)NC7=O)CC5)CC6)nc4c3F)c12 (stereo partly drawn) [Compound 310, ((3S,7aR)-7a-(((7-(8-ethyl-7-fluoro-3-hydroxynaphthalen-1-yl)-8-fluoro-4-((R)-3-hydroxy-3-methylpiperidin-1-yl)pyrido[4,3-d]pyrimidin-2-yl)oxy)methyl)hexahydro-1H-pyrrolizin-3-yl)methyl 4-(1-(2,6-dioxopiperidin-3-yl)-3-methyl-2-oxo-2,3-dihydro-1H-benzo[d]imidazol-4-yl)piperidine-1-carboxylate] |  | > 100 nM | 1 to 10 nM | > 100 nM |
| CCc1c(F)ccc2cc(O)cc(-c3ncc4c(N5CCC[C@@](C)(O)C5)nc(OC[C@]56CCCN5[C@H](COC(=O)NC5CCN(c7cccc8c7n(C)c(=O)n8C7CCC(=O)NC7=O)CC5)CC6)nc4c3F)c12 (stereo partly drawn) [Compound 311, ((3S,7aR)-7a-(((7-(8-ethyl-7-fluoro-3-hydroxynaphthalen-1-yl)-8-fluoro-4-((R)-3-hydroxy-3-methylpiperidin-1-yl)pyrido[4,3-d]pyrimidin-2-yl)oxy)methyl)hexahydro-1H-pyrrolizin-3-yl)methyl (1-(1-(2,6-dioxopiperidin-3-yl)-3-methyl-2-oxo-2,3-dihydro-1H-benzo[d]imidazol-4-yl)piperidin-4-yl)carbamate] | < 100 nM | > 100 nM | ≥ 10 nM |  |
| CCc1c(F)ccc2cc(O)cc(-c3ncc4c(N5CCC[C@@](C)(O)C5)nc(OC[C@]56CCCN5[C@H](COC(=O)NC5CCCN(c7cccc8c7n(C)c(=O)n8C7CCC(=O)NC7=O)C5)CC6)nc4c3F)c12 (stereo partly drawn) [Compound 312, ((3S,7aR)-7a-(((7-(8-ethyl-7-fluoro-3-hydroxynaphthalen-1-yl)-8-fluoro-4-((R)-3-hydroxy-3-methylpiperidin-1-yl)pyrido[4,3-d]pyrimidin-2-yl)oxy)methyl)hexahydro-1H-pyrrolizin-3-yl)methyl (1-(1-(2,6-dioxopiperidin-3-yl)-3-methyl-2-oxo-2,3-dihydro-1H-benzo[d]imidazol-4-yl)piperidin-3-yl)carbamate] |  | 10 to 100 nM | ≥ 10 nM | > 100 nM |
